Test results reported in ChEMBL document CHEMBL5303573, “Mapping human microbiome drug metabolism by gut bacteria and their genes” (Nature, 2019).

How the values were obtained:
[1] = The drug is tested on Providencia rettgeri strain: DSM1131 for biotransformation. The drug concentrations were measured before and after a 12-h incubation by liquid-chromatography-coupled mass spectrometry (LC–MS); type: ADME; design: dose 2 uM, timepoint 0 vs 12 hours; conditions: 2 µM
[2] = The drug is tested on Eubacterium hallii strain: DSM3353 for biotransformation. The drug concentrations were measured before and after a 12-h incubation by liquid-chromatography-coupled mass spectrometry (LC–MS); conditions: anaerobutyricum hallii, 2 µM
[3] = The drug is tested on Collinsella aerofaciens strain: ATCC25986 for biotransformation. The drug concentrations were measured before and after a 12-h incubation by liquid-chromatography-coupled mass spectrometry (LC–MS); conditions: 2 µM
[4] = The drug is tested on Clostridium ramosum strain: DSM1402 for biotransformation. The drug concentrations were measured before and after a 12-h incubation by liquid-chromatography-coupled mass spectrometry (LC–MS); conditions: thomasclavelia ramosa, 2 µM
[5] = parabacteroides johnsonii, 12 h, 2 µM
Description: The drug is tested on Parabacteroides johnsonii strain: DSM18315 for biotransformation. The drug concentrations were measured before and after a 12-h incubation by liquid-chromatography-coupled mass spectrometry (LC–MS)

[6] = The drug is tested on Ruminococcus torques strain: ATCC27756 for biotransformation. The drug concentrations were measured before and after a 12-h incubation by liquid-chromatography-coupled mass spectrometry (LC–MS); type: ADME; design: dose 2 uM, timepoint 0 vs 12 hours; conditions: 2 µM
[7] = The drug is tested on Escherichia coli strain: BW25113 for biotransformation. The drug concentrations were measured before and after a 12-h incubation by liquid-chromatography-coupled mass spectrometry (LC–MS); conditions: 2 µM
[8] = bifidobacterium adolescentis, 12 h, 2 µM
Description: The drug is tested on Bifidobacterium adolescentis strain: ATCC 15703 for biotransformation. The drug concentrations were measured before and after a 12-h incubation by liquid-chromatography-coupled mass spectrometry (LC–MS)

[9] = bacteroides fragilis, 12 h, 2 µM
Description: The drug is tested on Bacteroides fragilis strain: 3397 (T10) for biotransformation. The drug concentrations were measured before and after a 12-h incubation by liquid-chromatography-coupled mass spectrometry (LC–MS)

[10] = parabacteroides distasonis, 12 h, 2 µM
Description: The drug is tested on Parabacteroides distasonis strain: ATCC8503 for biotransformation. The drug concentrations were measured before and after a 12-h incubation by liquid-chromatography-coupled mass spectrometry (LC–MS)

[11] = The drug is tested on Clostridium symbiosum strain: ATCC14940 for biotransformation. The drug concentrations were measured before and after a 12-h incubation by liquid-chromatography-coupled mass spectrometry (LC–MS); conditions: 2 µM
[12] = The drug is tested on Bacteroides pectinophilus strain: ATCC43243 for biotransformation. The drug concentrations were measured before and after a 12-h incubation by liquid-chromatography-coupled mass spectrometry (LC–MS); conditions: 2 µM
[13] = bacteroides thetaiotaomicron, 12 h, 2 µM
Description: The drug is tested on Bacteroides thetaiotaomicron strain: VPI-5482 for biotransformation. The drug concentrations were measured before and after a 12-h incubation by liquid-chromatography-coupled mass spectrometry (LC–MS)

[14] = The drug is tested on Clostridium scindens strain: ATCC35704 for biotransformation. The drug concentrations were measured before and after a 12-h incubation by liquid-chromatography-coupled mass spectrometry (LC–MS); conditions: 2 µM
[15] = The drug is tested on Bifidobacterium longum subsp. Infantis strain: CCUG52486 for biotransformation. The drug concentrations were measured before and after a 12-h incubation by liquid-chromatography-coupled mass spectrometry (LC–MS); conditions: 2 µM
[16] = The drug is tested on Bacteroides sp. WH2 strain: WH2 for biotransformation. The drug concentrations were measured before and after a 12-h incubation by liquid-chromatography-coupled mass spectrometry (LC–MS); conditions: bacteroides sp. wh2, 12 h, 2 µM
[17] = enterocloster bolteae, 12 h, 2 µM
Description: The drug is tested on Clostridium bolteae strain: ATCCBAA-613 for biotransformation. The drug concentrations were measured before and after a 12-h incubation by liquid-chromatography-coupled mass spectrometry (LC–MS)

[18] = The drug is tested on Providencia stuartii strain: ATCC25827 for biotransformation. The drug concentrations were measured before and after a 12-h incubation by liquid-chromatography-coupled mass spectrometry (LC–MS); conditions: 2 µM
[19] = The drug is tested on Enterobacter cancerogenus strain: ATCC35316 for biotransformation. The drug concentrations were measured before and after a 12-h incubation by liquid-chromatography-coupled mass spectrometry (LC–MS); conditions: 2 µM

CCN(CC)CCNC(=O)c1ccc(NC(C)=O)cc1 [ACECAINIDE]
Bacterial Biotransformation [1]: Compound NOT metabolized
Bacterial Biotransformation [2]: Compound NOT metabolized
Bacterial Biotransformation [3]: Compound NOT metabolized
Bacterial Biotransformation [4]: Compound NOT metabolized
Bacterial Biotransformation [5]: Compound NOT metabolized
Bacterial Biotransformation [6]: Compound NOT metabolized
Bacterial Biotransformation [7]: Compound NOT metabolized
Bacterial Biotransformation [8]: Compound NOT metabolized
Bacterial Biotransformation [9]: Compound NOT metabolized
Bacterial Biotransformation [10]: Compound NOT metabolized
Bacterial Biotransformation [11]: Compound NOT metabolized
Bacterial Biotransformation [12]: Compound NOT metabolized
Bacterial Biotransformation [13]: Compound NOT metabolized
Bacterial Biotransformation [14]: Compound NOT metabolized
Bacterial Biotransformation [15]: Compound NOT metabolized
Bacterial Biotransformation [16]: Compound NOT metabolized
Bacterial Biotransformation [17]: Compound NOT metabolized

CN(C)CCc1c[nH]c2ccc(CS(=O)(=O)N3CCCC3)cc12 [ALMOTRIPTAN]
Bacterial Biotransformation [1]: Compound NOT metabolized
Bacterial Biotransformation [2]: Compound NOT metabolized
Bacterial Biotransformation [3]: Compound NOT metabolized
Bacterial Biotransformation [18]: Compound NOT metabolized
Bacterial Biotransformation [4]: Compound NOT metabolized
Bacterial Biotransformation [6]: Compound NOT metabolized
Bacterial Biotransformation [8]: Compound NOT metabolized
Bacterial Biotransformation [9]: Compound NOT metabolized
Bacterial Biotransformation [10]: Compound NOT metabolized
Bacterial Biotransformation [11]: Compound NOT metabolized
Bacterial Biotransformation [19]: Compound NOT metabolized
Bacterial Biotransformation [12]: Compound NOT metabolized
Bacterial Biotransformation [14]: Compound NOT metabolized
Bacterial Biotransformation [15]: Compound NOT metabolized
Bacterial Biotransformation [16]: Compound NOT metabolized
Bacterial Biotransformation [17]: Compound NOT metabolized

CC(C)NCC(O)COc1ccc(CC(N)=O)cc1 (stereo not given) [ATENOLOL]
Bacterial Biotransformation [2]: Compound NOT metabolized
Bacterial Biotransformation [3]: Compound NOT metabolized
Bacterial Biotransformation [18]: Compound NOT metabolized
Bacterial Biotransformation [5]: Compound NOT metabolized
Bacterial Biotransformation [6]: Compound NOT metabolized
Bacterial Biotransformation [7]: Compound NOT metabolized
Bacterial Biotransformation [8]: Compound NOT metabolized
Bacterial Biotransformation [10]: Compound NOT metabolized
Bacterial Biotransformation [11]: Compound NOT metabolized
Bacterial Biotransformation [19]: Compound NOT metabolized
Bacterial Biotransformation [12]: Compound NOT metabolized
Bacterial Biotransformation [14]: Compound NOT metabolized
Bacterial Biotransformation [15]: Compound NOT metabolized
Bacterial Biotransformation [16]: Compound NOT metabolized
Bacterial Biotransformation [17]: Compound NOT metabolized

CC(C)NCC(O)COc1ccc(CCOCC2CC2)cc1 (stereo not given) [BETAXOLOL]
Bacterial Biotransformation [1]: Compound NOT metabolized
Bacterial Biotransformation [2]: Compound NOT metabolized
Bacterial Biotransformation [3]: Compound NOT metabolized
Bacterial Biotransformation [18]: Compound NOT metabolized
Bacterial Biotransformation [4]: Compound NOT metabolized
Bacterial Biotransformation [6]: Compound NOT metabolized
Bacterial Biotransformation [7]: Compound NOT metabolized
Bacterial Biotransformation [8]: Compound NOT metabolized
Bacterial Biotransformation [9]: Compound NOT metabolized
Bacterial Biotransformation [11]: Compound NOT metabolized
Bacterial Biotransformation [12]: Compound NOT metabolized
Bacterial Biotransformation [13]: Compound NOT metabolized
Bacterial Biotransformation [14]: Compound NOT metabolized
Bacterial Biotransformation [15]: Compound NOT metabolized
Bacterial Biotransformation [16]: Compound NOT metabolized
Bacterial Biotransformation [17]: Compound NOT metabolized

CC(C)NCC(O)COc1ccc(COCCOC(C)C)cc1.CC(C)NCC(O)COc1ccc(COCCOC(C)C)cc1.O=C(O)/C=C/C(=O)O (stereo not given) [BISOPROLOL FUMARATE]
Bacterial Biotransformation [1]: Compound NOT metabolized
Bacterial Biotransformation [2]: Compound NOT metabolized
Bacterial Biotransformation [3]: Compound NOT metabolized
Bacterial Biotransformation [18]: Compound NOT metabolized
Bacterial Biotransformation [4]: Compound NOT metabolized
Bacterial Biotransformation [5]: Compound NOT metabolized
Bacterial Biotransformation [6]: Compound NOT metabolized
Bacterial Biotransformation [8]: Compound NOT metabolized
Bacterial Biotransformation [9]: Compound NOT metabolized
Bacterial Biotransformation [11]: Compound NOT metabolized
Bacterial Biotransformation [13]: Compound NOT metabolized
Bacterial Biotransformation [14]: Compound NOT metabolized
Bacterial Biotransformation [15]: Compound NOT metabolized
Bacterial Biotransformation [16]: Compound NOT metabolized
Bacterial Biotransformation [17]: Compound NOT metabolized

Br.CN(C)CCCC1(c2ccc(F)cc2)OCc2cc(C#N)ccc21 (stereo not given) [CITALOPRAM HYDROBROMIDE]
Bacterial Biotransformation [1]: Compound NOT metabolized
Bacterial Biotransformation [2]: Compound NOT metabolized
Bacterial Biotransformation [3]: Compound NOT metabolized
Bacterial Biotransformation [18]: Compound NOT metabolized
Bacterial Biotransformation [4]: Compound NOT metabolized
Bacterial Biotransformation [5]: Compound NOT metabolized
Bacterial Biotransformation [6]: Compound NOT metabolized
Bacterial Biotransformation [7]: Compound NOT metabolized
Bacterial Biotransformation [8]: Compound NOT metabolized
Bacterial Biotransformation [9]: Compound NOT metabolized
Bacterial Biotransformation [11]: Compound NOT metabolized
Bacterial Biotransformation [12]: Compound NOT metabolized
Bacterial Biotransformation [13]: Compound NOT metabolized
Bacterial Biotransformation [14]: Compound NOT metabolized
Bacterial Biotransformation [15]: Compound NOT metabolized
Bacterial Biotransformation [16]: Compound NOT metabolized
Bacterial Biotransformation [17]: Compound NOT metabolized

c1ccc([C@H]2CN3CCSC3=N2)cc1 [LEVAMISOLE]
Bacterial Biotransformation [1]: Compound NOT metabolized
Bacterial Biotransformation [2]: Compound NOT metabolized
Bacterial Biotransformation [3]: Compound metabolized
Bacterial Biotransformation [18]: Compound metabolized
Bacterial Biotransformation [5]: Compound metabolized
Bacterial Biotransformation [6]: Compound NOT metabolized
Bacterial Biotransformation [7]: Compound metabolized
Bacterial Biotransformation [8]: Compound NOT metabolized
Bacterial Biotransformation [9]: Compound metabolized
Bacterial Biotransformation [10]: Compound metabolized
Bacterial Biotransformation [11]: Compound metabolized
Bacterial Biotransformation [13]: Compound metabolized
Bacterial Biotransformation [14]: Compound metabolized
Bacterial Biotransformation [15]: Compound NOT metabolized
Bacterial Biotransformation [16]: Compound NOT metabolized
Bacterial Biotransformation [17]: Compound metabolized

CCCc1nc(C(C)(C)O)c(C(=O)OCc2oc(=O)oc2C)n1Cc1ccc(-c2ccccc2-c2nnn[nH]2)cc1 [OLMESARTAN MEDOXOMIL]
Bacterial Biotransformation [2]: Compound metabolized
Bacterial Biotransformation [3]: Compound metabolized
Bacterial Biotransformation [18]: Compound metabolized
Bacterial Biotransformation [5]: Compound metabolized
Bacterial Biotransformation [7]: Compound metabolized
Bacterial Biotransformation [8]: Compound NOT metabolized
Bacterial Biotransformation [9]: Compound metabolized
Bacterial Biotransformation [10]: Compound metabolized
Bacterial Biotransformation [11]: Compound metabolized
Bacterial Biotransformation [19]: Compound metabolized
Bacterial Biotransformation [12]: Compound metabolized
Bacterial Biotransformation [14]: Compound metabolized
Bacterial Biotransformation [15]: Compound metabolized
Bacterial Biotransformation [17]: Compound metabolized

CCOC(=O)[C@H](CCc1ccccc1)N[C@@H](C)C(=O)N1[C@H](C(=O)O)C[C@H]2CCCC[C@@H]21 [TRANDOLAPRIL]
Bacterial Biotransformation [1]: Compound metabolized
Bacterial Biotransformation [2]: Compound NOT metabolized
Bacterial Biotransformation [3]: Compound NOT metabolized
Bacterial Biotransformation [18]: Compound NOT metabolized
Bacterial Biotransformation [4]: Compound NOT metabolized
Bacterial Biotransformation [6]: Compound NOT metabolized
Bacterial Biotransformation [8]: Compound NOT metabolized
Bacterial Biotransformation [9]: Compound metabolized
Bacterial Biotransformation [10]: Compound metabolized
Bacterial Biotransformation [11]: Compound NOT metabolized
Bacterial Biotransformation [19]: Compound NOT metabolized
Bacterial Biotransformation [14]: Compound NOT metabolized
Bacterial Biotransformation [15]: Compound NOT metabolized
Bacterial Biotransformation [17]: Compound metabolized
